Data published in ChEMBL document CHEMBL1201862, “PubChem BioAssay data set” (2004).
Blank lines part the entries; values can stand above or below the molecule they belong to. Active and inactive are the calls of the source.

What was measured:
Hexokinase HKDC1 = molecular target: T1, Hexokinase HKDC1 (Homo sapiens, UniProt Q2TB90); experiment: HKDC1 hexokinase activators, dose response, biochemical, W721R variant (AID 504730); type: functional
T1 sequence (Q2TB90 whole entry): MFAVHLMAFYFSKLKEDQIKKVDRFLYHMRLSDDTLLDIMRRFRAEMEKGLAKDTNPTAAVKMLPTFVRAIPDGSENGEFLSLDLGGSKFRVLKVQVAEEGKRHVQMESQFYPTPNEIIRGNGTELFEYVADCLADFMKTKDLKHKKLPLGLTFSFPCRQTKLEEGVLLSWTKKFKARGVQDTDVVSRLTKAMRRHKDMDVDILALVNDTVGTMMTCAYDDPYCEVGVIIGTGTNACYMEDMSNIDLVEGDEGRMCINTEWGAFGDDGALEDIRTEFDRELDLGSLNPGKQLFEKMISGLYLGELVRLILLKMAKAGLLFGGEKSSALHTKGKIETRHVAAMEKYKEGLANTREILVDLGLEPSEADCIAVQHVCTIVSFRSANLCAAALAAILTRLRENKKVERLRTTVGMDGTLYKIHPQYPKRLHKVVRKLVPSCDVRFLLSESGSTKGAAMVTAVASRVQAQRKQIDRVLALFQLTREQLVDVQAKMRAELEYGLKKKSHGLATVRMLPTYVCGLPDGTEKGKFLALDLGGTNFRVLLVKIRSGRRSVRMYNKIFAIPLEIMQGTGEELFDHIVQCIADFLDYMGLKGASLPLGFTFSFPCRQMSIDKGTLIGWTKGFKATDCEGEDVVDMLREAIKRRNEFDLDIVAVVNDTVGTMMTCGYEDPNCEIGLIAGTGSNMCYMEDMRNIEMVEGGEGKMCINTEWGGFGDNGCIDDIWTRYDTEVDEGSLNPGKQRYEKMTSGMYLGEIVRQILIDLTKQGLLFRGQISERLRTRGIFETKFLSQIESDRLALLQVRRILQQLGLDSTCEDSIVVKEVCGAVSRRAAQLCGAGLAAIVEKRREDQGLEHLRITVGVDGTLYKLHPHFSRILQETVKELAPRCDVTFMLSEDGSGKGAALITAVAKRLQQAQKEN

Hexokinase-1 = Hexokinase-1 (Homo sapiens, UniProt P19367); experiment: hexokinase 1 activators, dose response, selectivity assay for HKDC1 activator project, biochemical (AID 504762); type: functional
[1] = Luminescence Cell-Based Dose Confirmation HTS to Identify Activators of 5'UTR Stem-Loop Driven Alpha-Synuclein mRNA Translation in H4 Neuroglioblastoma Cells. [Related pubchem assays: 1829 (Project Summary), 1814 (Primary HTS)]; type: functional
Beta-arrestin-1 = Beta-arrestin-1 (Homo sapiens, UniProt P49407); experiment: inhibitors of arrestin peptide binding to AP2, dose response, biochemical, cherry pick 1, beta2-adaptin appendage, flow cytometry (AID 588783); type: functional
[2] = HeLa cell cytotoxicity, dose response, cytotoxicity control for MgcRacGAP inhibitor project (AID 624300); type: functional
[3] = Artemis endonuclease inhibitor potency, dose response, biochemical, fluorescence intensity (AID 720701); type: functional;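 note: Artemis endonuclease enzyme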
cells = type: functional, cell-based
[4] = LGR2 antagonists, dose response, cell-based, HEK293, CRE-luciferase reporter, cherry pick, set 2 (AID 743343); type: functional;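 note: transfected cells were stimulated with diluted bursicon conditioned medium after compound addition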
[5] = molecular target: Megakaryocyte-associated tyrosine-protein kinase (Homo sapiens, UniProt P42679); type: functional;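 note: affinity measured as one member of a kinase panel (Navigating the Kinome) against MATK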
[6] = molecular target: Protein kinase C zeta type (Homo sapiens, UniProt Q05513); type: functional;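 note: measured as one member of a broad kinase profiling panel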
[7] = molecular target: Proto-oncogene tyrosine-protein kinase receptor Ret (Homo sapiens, UniProt P07949); type: functional;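 note: measured within a kinome-wide profiling panel, RET as the panel member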
[8] = molecular target: Calcium/calmodulin-dependent protein kinase type II subunit gamma (Homo sapiens, UniProt Q13555); type: functional
[9] = molecular target: Tyrosine-protein kinase receptor TYRO3 (Homo sapiens, UniProt Q06418); type: functional;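 note: TYRO3 value obtained as one member of a kinome-wide profiling panel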
[10] = molecular target: Serine/threonine-protein kinase D3 (Homo sapiens, UniProt O94806); type: functional;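 note: determined within a kinase panel screen, with PRKCN as the panel member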
[11] = molecular target: Serine/threonine-protein kinase 17A (Homo sapiens, UniProt Q9UEE5); type: functional
[12] = molecular target: Serine/threonine-protein kinase PAK 4 (Homo sapiens, UniProt O96013); type: functional;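 note: value obtained within a kinome profiling panel in which PAK4 was one of the panel members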
[13] = molecular target: Calcium/calmodulin-dependent protein kinase type II subunit delta (Homo sapiens, UniProt Q13557); type: functional
[14] = molecular target: Fibroblast growth factor receptor 1 (Homo sapiens, UniProt P11362); type: functional
[15] = molecular target: Casein kinase I isoform alpha (Homo sapiens, UniProt P48729); type: functional
[16] = molecular target: Tyrosine-protein kinase ITK/TSK (Homo sapiens, UniProt Q08881); type: functional;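 note: affinity for ITK measured as one member of a broad kinase panel profiling binding across the kinome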
[17] = molecular target: Non-receptor tyrosine-protein kinase TYK2 (Homo sapiens, UniProt P29597); type: functional
[18] = molecular target: Glycogen synthase kinase-3 alpha (Homo sapiens, UniProt P49840); type: functional;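 note: GSK3A result taken from a broad kinome-wide kinase panel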
Ephrin type-A receptor 2 = Ephrin type-A receptor 2 (Homo sapiens, UniProt P29317); type: functional;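 note: EPHA2 tested as one member of a kinome-wide kinase panel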
[19] = molecular target: Interleukin-1 receptor-associated kinase 1 (Homo sapiens, UniProt P51617); type: functional;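 note: IRAK1 tested as one member of a kinome panel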
[20] = molecular target: Vascular endothelial growth factor receptor 3 (Homo sapiens, UniProt P35916); type: functional;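 note: value from a kinome-wide profiling panel, with FLT4 as the panel member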
[21] = molecular target: Serine/threonine-protein kinase pim-2 (Homo sapiens, UniProt Q9P1W9); type: functional;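 note: value comes from a broad kinase panel profiling study in which PIM2 was one of the panel members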
[22] = molecular target: Cyclin-dependent kinase 7 (Homo sapiens, UniProt P50613); type: functional;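 note: value comes from a kinome-wide kinase profiling panel in which CDK7 is one member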
[23] = molecular target: Fibroblast growth factor receptor 3 (Homo sapiens, UniProt P22607); type: functional
[24] = molecular target: Dual specificity tyrosine-phosphorylation-regulated kinase 1A (Homo sapiens, UniProt Q13627); type: functional;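 note: measured against DYRK1A as one member of a broad kinome profiling panel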
[25] = molecular target: Serine/threonine-protein kinase 3 (Homo sapiens, UniProt Q13188); type: functional;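 note: measured as one member of a kinome-wide kinase panel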
[26] = molecular target: G2/mitotic-specific cyclin-B1 (Homo sapiens, UniProt P14635); experiment: Counterscreen assay for inhibitors of Wee1 degradation: dose response cell-based assay to identify inhibitors of cyclin B degradation. [Related pubchem assays: 1410, 1321 ]; type: functional
[27] = inhibitors of intracellular T. cruzi replication, confirmation, NIH3T3 host cells, beta-gal luminescence (AID 2044); type: functional, cell-based;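 note: intracellular parasites grown in NIH/3T3 mouse fibroblasts as host cells; luminescent beta-galactosidase reporter signal from transgenic T. cruzi replicating inside host cells; inhibitors lower the luminescence signal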
[28] = molecular target: Kappa-type opioid receptor (Homo sapiens, UniProt P41145); type: functional
Chain of Kappa-type opioid receptor (P41145 whole entry): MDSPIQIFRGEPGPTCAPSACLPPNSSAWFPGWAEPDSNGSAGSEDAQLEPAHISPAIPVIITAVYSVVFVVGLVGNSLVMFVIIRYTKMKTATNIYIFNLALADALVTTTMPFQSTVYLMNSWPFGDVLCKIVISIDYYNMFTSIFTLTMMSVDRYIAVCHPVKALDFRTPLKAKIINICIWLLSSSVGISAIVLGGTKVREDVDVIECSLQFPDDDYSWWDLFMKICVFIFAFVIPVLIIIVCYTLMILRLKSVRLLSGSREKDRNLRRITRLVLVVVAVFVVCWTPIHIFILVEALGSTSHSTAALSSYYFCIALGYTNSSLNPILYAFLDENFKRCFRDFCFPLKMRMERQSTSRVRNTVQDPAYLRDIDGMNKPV

Chain of Protein kinase C zeta type (Q05513 whole entry): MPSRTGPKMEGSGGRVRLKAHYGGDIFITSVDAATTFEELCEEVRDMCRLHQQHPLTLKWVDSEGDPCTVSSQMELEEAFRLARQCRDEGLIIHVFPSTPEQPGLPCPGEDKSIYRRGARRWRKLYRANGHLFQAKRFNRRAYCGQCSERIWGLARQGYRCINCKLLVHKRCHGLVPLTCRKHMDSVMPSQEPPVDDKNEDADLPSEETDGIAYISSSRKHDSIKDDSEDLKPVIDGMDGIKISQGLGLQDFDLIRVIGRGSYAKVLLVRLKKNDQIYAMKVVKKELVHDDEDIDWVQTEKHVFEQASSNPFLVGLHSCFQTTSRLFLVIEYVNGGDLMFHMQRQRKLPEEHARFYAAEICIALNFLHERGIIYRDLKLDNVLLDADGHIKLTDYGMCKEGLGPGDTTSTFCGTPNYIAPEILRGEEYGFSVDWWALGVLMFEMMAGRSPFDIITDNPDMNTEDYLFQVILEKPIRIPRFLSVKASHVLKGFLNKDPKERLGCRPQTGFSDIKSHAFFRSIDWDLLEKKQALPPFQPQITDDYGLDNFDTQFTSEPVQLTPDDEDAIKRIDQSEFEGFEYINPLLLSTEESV
Chain of Calcium/calmodulin-dependent protein kinase type II subunit gamma (Q13555 whole entry): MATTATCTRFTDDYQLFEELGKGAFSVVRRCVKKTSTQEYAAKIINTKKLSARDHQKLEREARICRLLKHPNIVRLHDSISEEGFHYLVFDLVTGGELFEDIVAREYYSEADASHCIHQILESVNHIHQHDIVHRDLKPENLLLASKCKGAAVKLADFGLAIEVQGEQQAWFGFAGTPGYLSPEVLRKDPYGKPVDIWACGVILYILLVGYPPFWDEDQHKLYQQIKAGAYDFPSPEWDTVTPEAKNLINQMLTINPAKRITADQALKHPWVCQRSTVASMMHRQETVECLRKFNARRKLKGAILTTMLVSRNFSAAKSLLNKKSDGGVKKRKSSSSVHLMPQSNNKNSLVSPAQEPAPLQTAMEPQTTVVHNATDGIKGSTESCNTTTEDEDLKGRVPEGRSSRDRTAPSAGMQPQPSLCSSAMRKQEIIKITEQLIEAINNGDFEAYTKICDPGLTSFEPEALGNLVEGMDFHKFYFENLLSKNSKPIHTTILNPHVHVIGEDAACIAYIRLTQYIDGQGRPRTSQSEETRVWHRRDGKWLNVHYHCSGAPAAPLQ
Chain of Ephrin type-A receptor 2 (P29317 whole entry): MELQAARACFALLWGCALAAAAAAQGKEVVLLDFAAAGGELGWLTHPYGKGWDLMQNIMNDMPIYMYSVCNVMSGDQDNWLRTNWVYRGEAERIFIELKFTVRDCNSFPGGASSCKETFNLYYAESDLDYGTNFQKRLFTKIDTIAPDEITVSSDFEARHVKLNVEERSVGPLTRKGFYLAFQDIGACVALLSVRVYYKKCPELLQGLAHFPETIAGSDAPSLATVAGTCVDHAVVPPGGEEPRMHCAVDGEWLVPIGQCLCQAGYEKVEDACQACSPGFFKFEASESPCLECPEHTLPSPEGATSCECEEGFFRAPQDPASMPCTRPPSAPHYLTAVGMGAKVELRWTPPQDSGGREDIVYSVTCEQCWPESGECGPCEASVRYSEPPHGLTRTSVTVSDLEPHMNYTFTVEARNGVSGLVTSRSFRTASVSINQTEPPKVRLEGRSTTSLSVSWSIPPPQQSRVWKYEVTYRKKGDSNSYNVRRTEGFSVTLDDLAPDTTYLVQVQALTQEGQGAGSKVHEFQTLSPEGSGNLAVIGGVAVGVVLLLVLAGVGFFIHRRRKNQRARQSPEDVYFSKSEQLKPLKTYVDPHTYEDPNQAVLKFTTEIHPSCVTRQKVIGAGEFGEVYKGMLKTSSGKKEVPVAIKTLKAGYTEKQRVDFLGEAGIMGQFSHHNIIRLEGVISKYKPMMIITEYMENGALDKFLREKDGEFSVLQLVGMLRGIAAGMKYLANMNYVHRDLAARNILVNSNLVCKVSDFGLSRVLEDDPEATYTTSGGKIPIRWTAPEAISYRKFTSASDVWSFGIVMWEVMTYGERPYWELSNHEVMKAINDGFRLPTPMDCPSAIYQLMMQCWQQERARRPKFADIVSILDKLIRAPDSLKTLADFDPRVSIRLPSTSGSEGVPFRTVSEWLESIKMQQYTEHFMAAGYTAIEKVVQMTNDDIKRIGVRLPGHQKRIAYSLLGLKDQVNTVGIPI
Chain of Glycogen synthase kinase-3 alpha (P49840 whole entry): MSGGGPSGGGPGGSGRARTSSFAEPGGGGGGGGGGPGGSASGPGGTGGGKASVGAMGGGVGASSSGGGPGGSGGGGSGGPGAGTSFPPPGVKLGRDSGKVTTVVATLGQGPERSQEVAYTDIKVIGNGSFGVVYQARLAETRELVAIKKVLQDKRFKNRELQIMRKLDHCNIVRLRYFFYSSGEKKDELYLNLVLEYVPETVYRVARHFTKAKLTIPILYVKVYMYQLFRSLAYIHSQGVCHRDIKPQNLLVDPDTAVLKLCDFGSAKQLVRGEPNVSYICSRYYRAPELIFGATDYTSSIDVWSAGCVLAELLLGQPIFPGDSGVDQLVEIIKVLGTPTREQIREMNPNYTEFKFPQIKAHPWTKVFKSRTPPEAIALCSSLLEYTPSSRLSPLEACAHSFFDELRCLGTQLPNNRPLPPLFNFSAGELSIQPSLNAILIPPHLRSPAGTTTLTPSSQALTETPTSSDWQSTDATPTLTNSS
Chain of Calcium/calmodulin-dependent protein kinase type II subunit delta (Q13557 whole entry): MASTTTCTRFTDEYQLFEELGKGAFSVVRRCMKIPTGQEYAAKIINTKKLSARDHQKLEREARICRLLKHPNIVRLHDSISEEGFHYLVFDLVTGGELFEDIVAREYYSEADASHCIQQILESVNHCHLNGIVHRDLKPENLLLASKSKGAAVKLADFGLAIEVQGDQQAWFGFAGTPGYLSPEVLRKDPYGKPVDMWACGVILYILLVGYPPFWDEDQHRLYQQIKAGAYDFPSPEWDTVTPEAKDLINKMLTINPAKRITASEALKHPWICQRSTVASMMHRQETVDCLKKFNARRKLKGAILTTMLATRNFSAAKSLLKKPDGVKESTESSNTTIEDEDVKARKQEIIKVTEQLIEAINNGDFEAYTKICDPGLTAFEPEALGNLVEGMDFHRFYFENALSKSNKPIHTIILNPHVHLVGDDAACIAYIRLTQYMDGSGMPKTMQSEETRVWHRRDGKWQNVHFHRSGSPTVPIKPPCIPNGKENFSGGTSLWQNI
Chain of G2/mitotic-specific cyclin-B1 (P14635 whole entry): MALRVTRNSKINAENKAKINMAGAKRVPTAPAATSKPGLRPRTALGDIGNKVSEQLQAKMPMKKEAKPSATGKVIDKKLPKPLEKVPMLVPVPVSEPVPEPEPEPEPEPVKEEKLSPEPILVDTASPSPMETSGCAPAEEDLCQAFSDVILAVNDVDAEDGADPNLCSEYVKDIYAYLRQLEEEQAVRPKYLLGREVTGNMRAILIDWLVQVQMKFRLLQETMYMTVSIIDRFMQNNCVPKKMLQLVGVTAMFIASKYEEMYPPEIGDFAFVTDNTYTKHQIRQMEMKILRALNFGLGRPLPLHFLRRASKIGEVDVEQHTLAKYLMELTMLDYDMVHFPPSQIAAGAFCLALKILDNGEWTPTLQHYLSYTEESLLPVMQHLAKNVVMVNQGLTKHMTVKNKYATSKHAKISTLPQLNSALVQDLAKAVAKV
Chain of Fibroblast growth factor receptor 3 (P22607 whole entry): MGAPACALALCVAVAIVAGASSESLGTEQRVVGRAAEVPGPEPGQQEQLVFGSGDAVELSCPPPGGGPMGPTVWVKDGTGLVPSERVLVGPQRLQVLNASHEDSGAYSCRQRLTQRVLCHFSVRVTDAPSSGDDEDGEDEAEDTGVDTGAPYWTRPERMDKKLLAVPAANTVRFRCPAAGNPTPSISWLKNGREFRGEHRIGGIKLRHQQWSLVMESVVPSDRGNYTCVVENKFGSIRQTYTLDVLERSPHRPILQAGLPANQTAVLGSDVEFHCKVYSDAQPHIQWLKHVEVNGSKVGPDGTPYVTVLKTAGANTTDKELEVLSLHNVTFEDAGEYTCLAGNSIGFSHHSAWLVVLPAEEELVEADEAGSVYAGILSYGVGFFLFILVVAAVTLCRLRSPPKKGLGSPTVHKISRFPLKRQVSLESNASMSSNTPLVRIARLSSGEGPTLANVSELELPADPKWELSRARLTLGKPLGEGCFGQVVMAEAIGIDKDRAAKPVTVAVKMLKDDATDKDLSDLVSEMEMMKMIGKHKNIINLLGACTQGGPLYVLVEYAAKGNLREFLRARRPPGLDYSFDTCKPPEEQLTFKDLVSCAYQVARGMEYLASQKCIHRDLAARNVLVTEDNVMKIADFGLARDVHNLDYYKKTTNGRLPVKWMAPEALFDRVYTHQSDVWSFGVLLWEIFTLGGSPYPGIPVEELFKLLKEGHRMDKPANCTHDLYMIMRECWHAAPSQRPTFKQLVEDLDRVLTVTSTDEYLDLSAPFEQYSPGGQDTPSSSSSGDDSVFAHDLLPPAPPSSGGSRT

SMILES: O=C1C(Cl)=C(NCc2cccnc2)C(=O)c2ccccc21
EC50 (Hexokinase HKDC1): 9.25 µM (active) | EC50 (Hexokinase-1): 30.8 µM (inactive)

SMILES: CN(C)c1ncc(C2=C(Cl)C(=O)C(N3CCCC3)=C(Cl)C2=O)s1
EC50 [1]: > 120 µM (not active) | IC50 (Beta-arrestin-1): 10.7 µM (active) | CC50 [2]: 18.7 µM (active)

SMILES: Cc1ccc(C(=O)c2c(C)oc3c2C(=O)C(=O)c2ccccc2-3)cc1
IC50 [3]: 2.2 µM (active)

SMILES: Cc1cnc(NC(=O)c2sc3ccccc3c2Cl)s1
IC50 (cells): > 67.5 µM (inactive) | AC50 [4]: 3.07 µM (active)

Ki [5]: > 2 µM (inactive) | Ki [6]: > 7.94 µM (inactive) | Ki [7]: > 1.26 µM (inactive) | Ki [8]: 0.501 µM (active) | Ki [9]: > 2 µM (inactive) | Ki [10]: > 10 µM (inactive) | Ki [11]: 0.631 µM (active) | Ki [12]: > 5.01 µM (inactive) | Ki [13]: 1.26 µM (active) | Ki [14]: > 5.01 µM (inactive) | Ki [15]: > 6.31 µM (inactive) | Ki [16]: > 1.58 µM (inactive) | Ki [17]: > 2 µM (inactive) | Ki [18]: 0.316 µM (active) | Ki (Ephrin type-A receptor 2): > 3.16 µM (inactive) | Ki [19]: > 7.94 µM (inactive) | Ki [20]: > 6.31 µM (inactive) | Ki [21]: 0.251 µM (active) | Ki [22]: > 1.58 µM (inactive) | Ki [23]: > 2 µM (inactive) | Ki [24]: 1 µM (active) | Ki [25]: 2 µM (active)
SMILES: O=C1NC(=S)SC1=C1C(=O)Nc2ccc(Br)cc21

SMILES: Cc1ccc(Nc2cc(C)nn2-c2nc(C)cc(O)n2)cc1
EC50 [26]: > 49.7 µM (not active) | EC50 [27]: < 0.1 µM (active) | IC50 [28]: > 32 µM
